Laboratory results as given in publication PMC7990224 (PLoS Pathogens, 2021).
Where two headings read alike, the source gives them in different places.

Experiments:
[1] = test system: SARS-CoV-2 strain nCoV-SH01; test: microbe, parasite or virus in culture; format: cell-based
SARS-CoV-2 trVLP = format: cell-based
HCoV-OC43 = conditions: cited from earlier work
in vitro = format: cell-based, human; conditions: human, n.d. = not detected
Experimental: (§1) Caco-2-N cells were seeded into 96-well plate (1×10^3 cells/well). After 12 hours, cells were treated with drugs with different concentrations. Cell viability was measured two days post treatment with CellTiter-Glo Luminescent Cell Viability Assay kit (Promega, G7570) following standard protocol. In brief, cells in 100 μl culture medium were added with 100 μl CellTiter-Glo reagent. After 15 minutes, luminescence was recorded with GloMax (Promega). CC50 was determined using logarithmic interpolation using GraphPad Prism software version 7.0.

SARS-CoV-2 = conditions: cited from earlier work
Caco-2-N cells = test: in vitro; format: cell-based, human; conditions: Fig 6B-6E, at tested concentrations, CellTiter-Glo
Experimental: as §1

[2] = test system: avian infectious bronchitis virus (IBV); conditions: cited from earlier work
SARS-CoV-2 GFP/ΔN trVLP = format: cell-based
[3] = Severe acute respiratory syndrome coronavirus 2, A549-ACE2

Tubeimoside I
IC50 ([1]; read-out: IC50): 1370 nM

Cn1cc(C2=C(c3ccc(Cl)cc3Cl)C(=O)NC2=O)c2ccccc21 [SB216763]
effect on GFP expression (trVLP production) (SARS-CoV-2 trVLP): inhibit GFP expression in a dose-dependent manner

CC[C@@H](C(=O)[C@@H](C)[C@@H](O)[C@H](C)[C@@H]1O[C@@H]([C@@H](CC)C(=O)O)CC[C@@H]1C)[C@H]1O[C@]2(C=C[C@@H](O)[C@]3(CC[C@@](C)([C@H]4CC[C@](O)(CC)[C@H](C)O4)O3)O2)[C@H](C)C[C@@H]1C [Salinomycin]
inhibition of HCoV-OC43 infection (HCoV-OC43): inhibit HCoV-OC43 infection
CC50 (in vitro; Fig 7G hit compounds, cell line for this CC50 not stated): 20200 nM
selectivity index (SI = CC50/IC50) [1]: 7.13
IC50 [1, 3]: 2840 nM
antiviral activity against SARS-CoV-2 infection in vitro (SARS-CoV-2): potent antiviral activity

CO[C@@H]1C[C@@H](C[C@H]2CC[C@H](C)[C@H]([C@@H](C)C(=O)O)O2)O[C@]2(O[C@](C)([C@H]3CC[C@@](C)([C@@H]4O[C@@H]([C@H]5O[C@@](O)(CO)[C@H](C)C[C@@H]5C)C[C@@H]4C)O3)C[C@H]2C)[C@@H]1C [Nigericin sodium]
IC50 ([1]; read-out: IC50): 11200 nM

GC376
cytotoxic effect (Caco-2-N cells): no apparent cytotoxic effect

O[C@H]1[C@H]2c3cc4c(cc3CN3CCC(=C[C@@H]1O)[C@H]23)OCO4 [Lycorine chloride]
inhibition of HCoV-OC43 infection (HCoV-OC43): inhibit HCoV-OC43 infection
IC50 [1, 3]: 773 nM

[Cl-].[Li+] [LiCl]
effect on GFP expression (trVLP production) (SARS-CoV-2 trVLP): inhibit GFP expression in a dose-dependent manner

CC(C)c1nc(CN(C)C(=O)N[C@H](C(=O)N[C@@H](Cc2ccccc2)C[C@H](O)[C@H](Cc2ccccc2)NC(=O)OCc2cncs2)C(C)C)cs1 [Ritonavir]
cytotoxic effect (Caco-2-N cells): serious cytotoxicity at the IC50 concentration

Monensin sodium
inhibition of HCoV-OC43 infection (HCoV-OC43): inhibit HCoV-OC43 infection
IC50 ([1]; read-out: IC50): 632 nM
inhibition of IBV infection [2]: blocks avian infectious bronchitis virus (IBV) infection

CCC(CC)COC(=O)[C@H](C)N[P@](=O)(OC[C@H]1O[C@@](C#N)(c2ccc3c(N)ncnn23)[C@H](O)[C@@H]1O)Oc1ccccc1 [Remdesivir]
cytotoxic effect (Caco-2-N cells): no apparent cytotoxic effect

Cc1cccc(C)c1OCC(=O)N[C@@H](Cc1ccccc1)[C@@H](O)C[C@H](Cc1ccccc1)NC(=O)[C@H](C(C)C)N1CCCNC1=O [Lopinavir]
Selectivity Index (SI) (SARS-CoV-2 GFP/ΔN trVLP): 2.18
CC50 (in vitro; Fig 6F, CellTiter-Glo, two days treatment): 19100 nM
cytotoxic effect (Caco-2-N cells): serious cytotoxicity at the IC50 concentration
